Measurements as given in PMC8060913, “The Calcium-Activated Chloride Channel TMEM16A is Inhibitied by Liquiritigenin” (Frontiers in Pharmacology, 2021).
Where two headings read alike, the source gives them in different places. Blank lines part the entries; values can stand above or below the compound they belong to.

How the values were obtained:
Format in all cases: cell-based
[1] = target: T1, mouse TMEM16A (mTMEM16A, anoctamin 1) (Mus musculus, UniProt Q8BHY3); experiment: whole-cell patch-clamp in transfected HEK293T cells, +[…] mV
T1 construct: gene Ano1
T1 sequence (Q8BHY3 1-960): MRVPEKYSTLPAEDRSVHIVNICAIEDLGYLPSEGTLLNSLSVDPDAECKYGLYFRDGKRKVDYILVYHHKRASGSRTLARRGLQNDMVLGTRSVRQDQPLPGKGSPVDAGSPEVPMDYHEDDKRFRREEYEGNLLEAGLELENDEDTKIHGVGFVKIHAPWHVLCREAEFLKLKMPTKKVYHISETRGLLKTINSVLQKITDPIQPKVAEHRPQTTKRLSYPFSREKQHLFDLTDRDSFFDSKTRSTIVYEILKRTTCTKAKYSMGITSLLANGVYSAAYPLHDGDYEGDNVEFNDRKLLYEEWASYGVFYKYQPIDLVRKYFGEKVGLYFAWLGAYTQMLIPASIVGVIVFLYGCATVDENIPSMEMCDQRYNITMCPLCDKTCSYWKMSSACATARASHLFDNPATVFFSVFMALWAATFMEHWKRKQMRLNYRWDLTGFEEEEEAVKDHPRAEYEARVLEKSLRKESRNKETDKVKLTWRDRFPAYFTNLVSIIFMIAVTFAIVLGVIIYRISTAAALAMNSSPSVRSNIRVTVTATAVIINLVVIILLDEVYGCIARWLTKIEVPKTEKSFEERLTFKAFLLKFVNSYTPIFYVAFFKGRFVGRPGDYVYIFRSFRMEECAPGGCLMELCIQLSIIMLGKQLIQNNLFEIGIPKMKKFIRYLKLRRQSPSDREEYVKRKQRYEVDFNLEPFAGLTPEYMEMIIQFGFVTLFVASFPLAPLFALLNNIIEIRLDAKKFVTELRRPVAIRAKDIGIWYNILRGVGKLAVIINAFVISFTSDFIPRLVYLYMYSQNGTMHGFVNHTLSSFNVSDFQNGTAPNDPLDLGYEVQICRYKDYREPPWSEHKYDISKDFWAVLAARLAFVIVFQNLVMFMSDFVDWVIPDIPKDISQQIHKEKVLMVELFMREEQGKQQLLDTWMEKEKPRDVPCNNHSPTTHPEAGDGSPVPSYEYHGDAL

[2] = target: T2, human TMEM16A (hTMEM16A, anoctamin 1) (Homo sapiens, UniProt Q5XXA6); experiment: as above
T2 construct: gene ANO1; untagged complete CDS
T2 sequence (Q5XXA6 1-986): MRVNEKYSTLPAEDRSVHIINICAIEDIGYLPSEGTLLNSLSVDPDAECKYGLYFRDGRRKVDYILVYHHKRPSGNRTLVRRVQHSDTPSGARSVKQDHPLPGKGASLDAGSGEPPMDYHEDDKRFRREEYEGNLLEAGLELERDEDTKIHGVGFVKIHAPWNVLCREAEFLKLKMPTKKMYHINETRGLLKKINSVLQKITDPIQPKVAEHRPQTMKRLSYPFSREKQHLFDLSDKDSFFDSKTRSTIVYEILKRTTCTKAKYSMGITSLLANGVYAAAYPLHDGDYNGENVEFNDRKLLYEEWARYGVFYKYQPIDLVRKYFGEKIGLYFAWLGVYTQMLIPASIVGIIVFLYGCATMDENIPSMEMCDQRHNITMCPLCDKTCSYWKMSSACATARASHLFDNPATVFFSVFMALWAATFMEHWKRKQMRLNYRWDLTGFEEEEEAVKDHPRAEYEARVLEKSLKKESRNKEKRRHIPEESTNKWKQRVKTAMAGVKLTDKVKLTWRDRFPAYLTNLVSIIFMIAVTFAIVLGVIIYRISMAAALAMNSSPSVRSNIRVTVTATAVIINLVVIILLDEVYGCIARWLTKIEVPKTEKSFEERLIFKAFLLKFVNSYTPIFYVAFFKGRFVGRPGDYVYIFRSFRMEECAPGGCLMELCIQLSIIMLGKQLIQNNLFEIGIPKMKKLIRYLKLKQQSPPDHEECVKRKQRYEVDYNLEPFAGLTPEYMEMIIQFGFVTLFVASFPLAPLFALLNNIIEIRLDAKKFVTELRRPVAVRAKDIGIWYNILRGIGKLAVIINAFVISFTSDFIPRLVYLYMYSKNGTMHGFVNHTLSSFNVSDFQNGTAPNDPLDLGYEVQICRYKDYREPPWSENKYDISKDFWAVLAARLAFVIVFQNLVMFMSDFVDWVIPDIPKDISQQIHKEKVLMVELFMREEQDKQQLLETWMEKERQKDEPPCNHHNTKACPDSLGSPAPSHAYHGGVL

[3] = target: T2, human TMEM16A (hTMEM16A, anoctamin 1); experiment: whole-cell patch-clamp in transfected HEK293T cells, % inhibition at […], +[…] mV; settings: HEK-293T
[4] = target: T1, mouse TMEM16A (mTMEM16A, anoctamin 1); experiment: as above; settings: HEK-293T

SMILES: O=C1C[C@@H](c2ccc(O)cc2)Oc2cc(O)ccc21 [liquiritigenin]
IC50 [1]: 21.3 µM | IC50 [2]: 12.9 µM

inhibition at 100 µM [3]: 43.5% | inhibition at 100 µM [4]: 56.8%
SMILES: C[C@]12CC[C@@H]3c4ccc(O)cc4CC[C@H]3[C@@H]1C[C@@H](O)[C@@H]2O [E3, estriol]

IC50 ([1]; read-out: IC50): 178 µM | IC50 ([2]; read-out: IC50): 251 µM
SMILES: O=C1c2ccc(O)cc2OCC1c1ccc(O)cc1 (stereo not drawn) [dihydrodaidzein]
